The values that follow come from patent US11098040B2, “Compounds and methods of use” (Ferro Therapeutics, Inc., priority 2018, dated 2021).

Structures are written as SMILES. Bounds are passed on as bounds.

What is called IC50 is the concentration that gives 50% inhibition.

The test system of the first data set is KP4. In words: Cell viability assay (CellTiter Glo), pancreatic ductal adenocarcinoma KP4. Format: cell-based, human. As to conditions: Homo sapiens, KP-4, 96 h, pancreatic cancer cell line KP4, 96 hours, CellTiter Glo; read-out: IC50 μM KP4. The method in brief:
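KP4 cells seeded at 1,000–10,000 per well, treated 96 h with 9-point 3-fold dilutions from 30 μM top (4.6 nM–30 μM, duplicates; ≤0.25% DMSO). Viability by CellTiter Glo luminescence; % inhibition relative to DMSO-only wells, giving IC50, relative IC50 or % top inhibition.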
In general terms: ATP-based viability assays read luminescence as a measure of living cells.
Regarding `COC(=O)c1ccc([C@@H]2c3c(c4ccccc4n3C)C[C@H](C(=O)OC)N2C(=O)CCl)cc1` [Compound 73], the IC50 lay in the range of 0.5 to 1 µM.
In the case of `C=CCOC(=O)c1ccc([C@H]2c3[nH]c4ccccc4c3C[C@H](C(=O)OC)N2C(=O)CCl)cc1` [Compound 74], the IC50 is < 0.01 µM.
The same measure, in the same setting: the figure for `COC(=O)[C@H]1Cc2c([nH]c3ccccc23)[C@H](c2ccc(C(=O)OCC3CC3)cc2)N1C(=O)CCl` [Compound 75] is < 0.01 µM; for `COC(=O)c1ccc([C@H]2c3[nH]c4ccccc4c3C[C@H](C)N2C(=O)CCl)cc1` [Compound 77] it is < 0.01 µM; for `COC(=O)[C@H]1Cc2c([nH]c3ccccc23)[C@H](c2ccc(NC(C)=O)cc2)N1C(=O)CCl` [Compound 80] it is 0.01 to 0.1 µM.
In the case of `COC(=O)[C@H]1Cc2c([nH]c3ccccc23)[C@H](c2ccc(C(=O)NCC3CC3)cc2)N1C(=O)CCl` [Compound 81], the half-maximal inhibitory concentration (IC50) was < 0.01 µM.
The same measure, in the same setting: the figure for `COC(=O)[C@H]1Cc2c([nH]c3ccccc23)[C@H](c2ccc(S(=O)(=O)NCC3CC3)cc2)N1C(=O)CCl` [Compound 82] is < 0.01 µM.

System in the next data set: not listed separately
Nature of the data set: Whole blood stability, human. The format is in vitro ADME. The settings on record: 0 min. From the text: (§1) The results of the assay on stability in blood and IC50 values for pancreatic cancer cell line KP4 are given below in Table 24.
In the case of `COC(=O)c1ccc([C@@H]2c3c(c4ccccc4n3C)C[C@H](C(=O)OC)N2C(=O)CCl)cc1` [Compound 73], the “Whole Blood Stability % Remaining at 37° C. Human” value was found to be 100.0%.
Take `C=CCOC(=O)c1ccc([C@H]2c3[nH]c4ccccc4c3C[C@H](C(=O)OC)N2C(=O)CCl)cc1` [Compound 74]: the “Whole Blood Stability % Remaining at 37° C. Human” value was determined as 100.0%.
The same measure, in the same setting: under `COC(=O)[C@H]1Cc2c([nH]c3ccccc23)[C@H](c2ccc(C(=O)OCC3CC3)cc2)N1C(=O)CCl` [Compound 75] stands 100.0%; under `COC(=O)c1ccc([C@H]2c3[nH]c4ccccc4c3C[C@H](C)N2C(=O)CCl)cc1` [Compound 77], 100.0%.
The same measure, in the same setting: under `COC(=O)[C@H]1Cc2c([nH]c3ccccc23)[C@H](c2ccc(NC(C)=O)cc2)N1C(=O)CCl` [Compound 80] stands 100.0%; under `COC(=O)[C@H]1Cc2c([nH]c3ccccc23)[C@H](c2ccc(C(=O)NCC3CC3)cc2)N1C(=O)CCl` [Compound 81], 100.0%; under `COC(=O)[C@H]1Cc2c([nH]c3ccccc23)[C@H](c2ccc(S(=O)(=O)NCC3CC3)cc2)N1C(=O)CCl` [Compound 82], 100.0%.

The data set is the same for the next values; noted with them: 30 min.
For `COC(=O)c1ccc([C@@H]2c3c(c4ccccc4n3C)C[C@H](C(=O)OC)N2C(=O)CCl)cc1` [Compound 73], the “Whole Blood Stability % Remaining at 37° C. Human” value was determined as 55.1%.
On the same count and under the same terms, the figure for `C=CCOC(=O)c1ccc([C@H]2c3[nH]c4ccccc4c3C[C@H](C(=O)OC)N2C(=O)CCl)cc1` [Compound 74] is 58.2%.
Consider `COC(=O)[C@H]1Cc2c([nH]c3ccccc23)[C@H](c2ccc(C(=O)OCC3CC3)cc2)N1C(=O)CCl` [Compound 75], for which the “Whole Blood Stability % Remaining at 37° C. Human” value was found to be 68.1%.
On the same count and under the same terms, under `COC(=O)c1ccc([C@H]2c3[nH]c4ccccc4c3C[C@H](C)N2C(=O)CCl)cc1` [Compound 77] stands 54.1%; under `COC(=O)[C@H]1Cc2c([nH]c3ccccc23)[C@H](c2ccc(NC(C)=O)cc2)N1C(=O)CCl` [Compound 80], 60.9%; under `COC(=O)[C@H]1Cc2c([nH]c3ccccc23)[C@H](c2ccc(C(=O)NCC3CC3)cc2)N1C(=O)CCl` [Compound 81], 48.0%.
Regarding `COC(=O)[C@H]1Cc2c([nH]c3ccccc23)[C@H](c2ccc(S(=O)(=O)NCC3CC3)cc2)N1C(=O)CCl` [Compound 82], the “Whole Blood Stability % Remaining at 37° C. Human” value was 47.6%.

The same data set, now with this note: 60 min.
`COC(=O)c1ccc([C@@H]2c3c(c4ccccc4n3C)C[C@H](C(=O)OC)N2C(=O)CCl)cc1` [Compound 73]: the “Whole Blood Stability % Remaining at 37° C. Human” value came to 36.1%.
On the same count and under the same terms, the figure for `C=CCOC(=O)c1ccc([C@H]2c3[nH]c4ccccc4c3C[C@H](C(=O)OC)N2C(=O)CCl)cc1` [Compound 74] is 29.0%.
Same read-out and setting: under `COC(=O)[C@H]1Cc2c([nH]c3ccccc23)[C@H](c2ccc(C(=O)OCC3CC3)cc2)N1C(=O)CCl` [Compound 75] stands 41.5%.
The same measure, in the same setting: under `COC(=O)c1ccc([C@H]2c3[nH]c4ccccc4c3C[C@H](C)N2C(=O)CCl)cc1` [Compound 77] stands 27.5%; under `COC(=O)[C@H]1Cc2c([nH]c3ccccc23)[C@H](c2ccc(NC(C)=O)cc2)N1C(=O)CCl` [Compound 80], 49.6%; under `COC(=O)[C@H]1Cc2c([nH]c3ccccc23)[C@H](c2ccc(C(=O)NCC3CC3)cc2)N1C(=O)CCl` [Compound 81], 40.6%.
Consider `COC(=O)[C@H]1Cc2c([nH]c3ccccc23)[C@H](c2ccc(S(=O)(=O)NCC3CC3)cc2)N1C(=O)CCl` [Compound 82], for which the “Whole Blood Stability % Remaining at 37° C. Human” value was determined as 34.5%.

System in the next data set: not listed separately
In words: Whole blood stability, mouse. The format is in vitro ADME. As to conditions: 0 min.
Description: as §1
With `COC(=O)c1ccc([C@@H]2c3c(c4ccccc4n3C)C[C@H](C(=O)OC)N2C(=O)CCl)cc1` [Compound 73], the “Whole Blood Stability % Remaining at 37° C. Mouse” value was 100.0%.
On the same count and under the same terms, under `C=CCOC(=O)c1ccc([C@H]2c3[nH]c4ccccc4c3C[C@H](C(=O)OC)N2C(=O)CCl)cc1` [Compound 74] stands 100.0%.
In the case of `COC(=O)[C@H]1Cc2c([nH]c3ccccc23)[C@H](c2ccc(C(=O)OCC3CC3)cc2)N1C(=O)CCl` [Compound 75], the “Whole Blood Stability % Remaining at 37° C. Mouse” value came to 100.0%.
Same read-out and setting: under `COC(=O)c1ccc([C@H]2c3[nH]c4ccccc4c3C[C@H](C)N2C(=O)CCl)cc1` [Compound 77] stands 100.0%; under `COC(=O)[C@H]1Cc2c([nH]c3ccccc23)[C@H](c2ccc(NC(C)=O)cc2)N1C(=O)CCl` [Compound 80], 100.0%.
The same measure, in the same setting: the figure for `COC(=O)[C@H]1Cc2c([nH]c3ccccc23)[C@H](c2ccc(C(=O)NCC3CC3)cc2)N1C(=O)CCl` [Compound 81] is 100.0%; for `COC(=O)[C@H]1Cc2c([nH]c3ccccc23)[C@H](c2ccc(S(=O)(=O)NCC3CC3)cc2)N1C(=O)CCl` [Compound 82] it is 100.0%.

Staying with this data set, now noted: 30 min.
Take `COC(=O)c1ccc([C@@H]2c3c(c4ccccc4n3C)C[C@H](C(=O)OC)N2C(=O)CCl)cc1` [Compound 73]: the “Whole Blood Stability % Remaining at 37° C. Mouse” value was 48.5%.
Turning to `C=CCOC(=O)c1ccc([C@H]2c3[nH]c4ccccc4c3C[C@H](C(=O)OC)N2C(=O)CCl)cc1` [Compound 74], the “Whole Blood Stability % Remaining at 37° C. Mouse” value was 0.0%.
As to `COC(=O)[C@H]1Cc2c([nH]c3ccccc23)[C@H](c2ccc(C(=O)OCC3CC3)cc2)N1C(=O)CCl` [Compound 75], the “Whole Blood Stability % Remaining at 37° C. Mouse” value came to 1.8%.
Consider `COC(=O)c1ccc([C@H]2c3[nH]c4ccccc4c3C[C@H](C)N2C(=O)CCl)cc1` [Compound 77], for which the “Whole Blood Stability % Remaining at 37° C. Mouse” value is recorded as 0.5%.
On the same count and under the same terms, under `COC(=O)[C@H]1Cc2c([nH]c3ccccc23)[C@H](c2ccc(NC(C)=O)cc2)N1C(=O)CCl` [Compound 80] stands 72.3%; under `COC(=O)[C@H]1Cc2c([nH]c3ccccc23)[C@H](c2ccc(C(=O)NCC3CC3)cc2)N1C(=O)CCl` [Compound 81], 64.2%.
On the same count and under the same terms, under `COC(=O)[C@H]1Cc2c([nH]c3ccccc23)[C@H](c2ccc(S(=O)(=O)NCC3CC3)cc2)N1C(=O)CCl` [Compound 82] stands 43.1%.

The data set is the same for the next values; noted with them: 60 min.
For the compound `COC(=O)c1ccc([C@@H]2c3c(c4ccccc4n3C)C[C@H](C(=O)OC)N2C(=O)CCl)cc1` [Compound 73], the “Whole Blood Stability % Remaining at 37° C. Mouse” value turned out to be 1.1%.
For `C=CCOC(=O)c1ccc([C@H]2c3[nH]c4ccccc4c3C[C@H](C(=O)OC)N2C(=O)CCl)cc1` [Compound 74], the “Whole Blood Stability % Remaining at 37° C. Mouse” value is on record as 0.0%.
Turning to `COC(=O)[C@H]1Cc2c([nH]c3ccccc23)[C@H](c2ccc(C(=O)OCC3CC3)cc2)N1C(=O)CCl` [Compound 75], the “Whole Blood Stability % Remaining at 37° C. Mouse” value came to 0.9%.
In the case of `COC(=O)c1ccc([C@H]2c3[nH]c4ccccc4c3C[C@H](C)N2C(=O)CCl)cc1` [Compound 77], the “Whole Blood Stability % Remaining at 37° C. Mouse” value is recorded as 0.0%.
Turning to `COC(=O)[C@H]1Cc2c([nH]c3ccccc23)[C@H](c2ccc(NC(C)=O)cc2)N1C(=O)CCl` [Compound 80], the “Whole Blood Stability % Remaining at 37° C. Mouse” value was 58.6%.
With `COC(=O)[C@H]1Cc2c([nH]c3ccccc23)[C@H](c2ccc(C(=O)NCC3CC3)cc2)N1C(=O)CCl` [Compound 81], the “Whole Blood Stability % Remaining at 37° C. Mouse” value is recorded as 39.8%.
Consider `COC(=O)[C@H]1Cc2c([nH]c3ccccc23)[C@H](c2ccc(S(=O)(=O)NCC3CC3)cc2)N1C(=O)CCl` [Compound 82], for which the “Whole Blood Stability % Remaining at 37° C. Mouse” value amounted to 21.7%.
